Results on 41 compounds are retold here after patent US12492200B2, “NLRP3 modulators” (INNATE TUMOR IMMUNITY, INC., priority 2020, dated 2025).

In the test the target is T1, NLRP3 (Homo sapiens, UniProt Q96P20).
T1 construct: host or cells: PMA-differentiated THP-1 cells
Briefly: Measurement of IL-1β production (NLRP3 hIL1β EC50), PMA-differentiated THP-1 cells. It counts as cell-based. To be noted: human IL-1β production; assayed using one or more of the described procedures. The method, then:
THP-1 cells were purchased from the American Type Culture Collection and sub-cultured according to instructions from the supplier. Prior to experiments, cells were cultured in RPMI 1640 containing 10% heat inactivated FBS, penicillin (100 units/ml) and streptomycin (100 μg/ml), and maintained in log phase prior to experimental setup. Prior to the experiment THIP-1 were treated with PMA (Phorbol 12-myristate 13-acetate) (10 μg/ml) for 24 hours. The day of the experiment the media was removed and attaching cells were treated with trypsin for 2 minutes, cells were then collected, washed with PBS (phosphate buffer saline), spin down, resuspended in 2% heat inactivated FBS with RPMI at a concentration of 1×10^6 cells/ml, and 100 μl was plated in a 96 well plate. Compounds were dissolved in dimethyl sulfoxide (DMSO) and added to the culture medium to achieve desired concentration (e.g. 100, 30, 10, 3, 1, 0.3 or 0.1 μM). Cells were incubated with compounds for 4 hours. Cell free supernatant was collected and the production of IL-1β was evaluated by ELISA. A vehicle only control was run concurrently with each experiment. Final DMSO concentration was 1%.
THP-1 cells were purchased from the American Type Culture Collection and sub-cultured according to instructions from the supplier. Prior to experiments, cells were cultured in RPMI 1640 containing 10% heat inactivated FBS, penicillin (100 units/ml), streptomycin (100 μg/ml), HEPES (10 mM) and sodium pyruvate (1 mM) and maintained in log phase prior to experimental setup. Prior to the experiment, THP-1 cells were treated with PMA (Phorbol 12-myristate 13-acetate) (20 μg/ml) overnight. The day of the experiment, the media was removed and attached cells were treated with trypsin for 2 minutes, cells were then collected, washed with PBS (phosphate buffer saline), pelleted by centrifugation and resuspended in 2% heat inactivated FBS with RPMI at a concentration of 50,000 cells/well in a 384 well plate. Cell free supernatant was collected and the production of IL-1β was evaluated by ELISA. Compounds were dissolved in dimethyl sulfoxide (DMSO) and added to the culture medium to achieve desired concentration (e.g. 100, 30, 10, 3, 1, 0.3 or 0.1 μM). Cells were incubated with compounds for 2 hours. A vehicle only control was run concurrently with each experiment. Final DMSO concentration was 1%.
Serial dilutions of compounds in DMSO were added to low volume 384 well plates at 100 nl/well using an ECHO 550 acoustic dispenser (Labcyte) to achieve final starting concentration of 10 μM in assay.
THP-1 cells in RPMI (Gibco, 11875) media with 10% FBS at a density of 1×10^6 cell/ml in a T175 flask were treated with a final concentration of phorbol 12-myristate 13-acetate (PMA) (Sigma,P1585) of 50 ng/ml overnight at 37° C. at 5% CO2 for differentiation. Cells were harvested the next day after rinsing well with dPBS using 0.5% trypsin. A cell solution was prepared of 1×10^6 cells/ml for 50,000 cells in 50 μl/well in RPMI media with 2% FBS. Cells were plated using a multichannel pipette onto the compound dilutions in Greiner, 384 well, black clear bottom tissue culture treated plates (781090). The plates were incubated in 37° C. incubator at 5% CO2 for 2 hours.
After the 2 hour incubation, the cell plates were spun in the centrifuge for 5 minutes at 1200 rpm. Using the Felix (CyBio), 8 μl of the supernatant was transferred to 384 well, low volume, white proxy plates. (Perkin Elmer, 6008230). A human IL1beta hTRF kit was used to analyze the supernatant (CISBIO, 62HIL1BPEG). The kit instructions were followed for preparing the IL1Beta standard curve and then the antibodies from the kit were diluted 1:40 rather than 1:20 as kit instructed. Once combined, the antibodies were added across the plates, 5 μl/well. The plates were sealed and incubated at 4° C. overnight. The plates were then read on the Perkin Elmer EnVision at 665/615 nm using the hTRF laser.

T1 sequence (Q96P20 whole entry): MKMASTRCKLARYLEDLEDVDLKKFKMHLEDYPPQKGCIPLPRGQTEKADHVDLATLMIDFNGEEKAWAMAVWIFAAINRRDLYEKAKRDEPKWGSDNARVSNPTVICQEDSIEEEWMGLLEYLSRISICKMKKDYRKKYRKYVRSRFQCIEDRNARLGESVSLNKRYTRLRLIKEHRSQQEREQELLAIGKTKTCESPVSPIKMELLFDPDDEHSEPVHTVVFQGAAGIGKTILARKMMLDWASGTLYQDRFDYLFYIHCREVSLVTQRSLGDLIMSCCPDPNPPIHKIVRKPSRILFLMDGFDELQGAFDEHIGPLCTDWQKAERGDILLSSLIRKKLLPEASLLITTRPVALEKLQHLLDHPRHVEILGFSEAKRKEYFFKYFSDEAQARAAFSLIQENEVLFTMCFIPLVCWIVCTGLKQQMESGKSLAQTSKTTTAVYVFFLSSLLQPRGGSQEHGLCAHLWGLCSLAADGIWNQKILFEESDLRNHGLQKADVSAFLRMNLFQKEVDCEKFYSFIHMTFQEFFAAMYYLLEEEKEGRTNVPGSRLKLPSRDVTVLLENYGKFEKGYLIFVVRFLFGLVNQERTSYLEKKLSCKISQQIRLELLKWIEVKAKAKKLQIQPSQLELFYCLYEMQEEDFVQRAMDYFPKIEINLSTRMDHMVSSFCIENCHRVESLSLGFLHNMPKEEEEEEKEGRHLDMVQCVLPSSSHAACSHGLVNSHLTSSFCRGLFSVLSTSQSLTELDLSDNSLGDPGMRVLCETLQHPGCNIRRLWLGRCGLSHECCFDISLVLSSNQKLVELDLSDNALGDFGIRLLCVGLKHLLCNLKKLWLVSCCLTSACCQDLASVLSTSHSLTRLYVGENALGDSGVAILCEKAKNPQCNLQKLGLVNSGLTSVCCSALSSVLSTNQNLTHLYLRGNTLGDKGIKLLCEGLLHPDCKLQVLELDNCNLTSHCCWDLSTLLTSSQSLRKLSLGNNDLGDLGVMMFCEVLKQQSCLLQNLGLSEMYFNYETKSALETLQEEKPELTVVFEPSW

Regarding `COCCC(=O)N1CCC[C@H]1Cc1nc2c(N)nc3cc(-c4cc[nH]n4)ccc3c2[nH]1` [Example 90], the midpoint of the response, the EC50, lay at 6000 nM.

Compound `CC(C)n1c([C@H]2CCCN(C(=O)C3CC(F)(F)C3)C2)nc2c(N)nc3cc(-c4cc[nH]n4)ccc3c21` [Example 58] gave a concentration giving a half-maximal response (EC50) of 330 nM. Regarding `N#CC1(C(=O)N2CCC[C@H]2Cc2nc3c(N)nc4cc(-c5cc[nH]n5)ccc4c3[nH]2)CCCC1` [Example 95], the EC50 came out at 6500 nM.

For `N#CC1(C(=O)N2CCC[C@H]2Cc2nc3c(N)nc4cc(-c5cc[nH]n5)ccc4c3[nH]2)CC1` [Example 92], the EC50 was 9400 nM. With `CCn1c([C@H]2CCCN(C(=O)CC(C)C)C2)nc2c(N)nc3cc(-c4cc[nH]n4)ccc3c21` [Example 43] the figure was 210 nM; with `N#CC1(C(=O)N2CCC[C@@H]2Cc2nc3c(N)nc4cc(-c5cc[nH]n5)ccc4c3[nH]2)CCCC1` [Example 83], 6600 nM. To `CC(C)(C)OC(=O)N1CCC(c2nc3c(N)nc4cc(-c5cc[nH]n5)ccc4c3[nH]2)CC1` [Example 12, tert-Butyl 4-(4-amino-7-(1H-pyrazol-3-yl)-1H-imidazo[4,5-c]quinolin-2-yl)piperidine-1-carboxylate] belongs 4900 nM; to `CC(C)n1c([C@H]2CCCN(C(=O)C3CCC3)C2)nc2c(N)nc3cc(-c4cc[nH]n4)ccc3c21` [Example 54], 240 nM.

Compound `CCN1CCC(Cc2nc3c(N)nc4cc(-n5cccn5)ccc4c3[nH]2)C1` (centres unmarked) [Example 22, 2-((1-Ethylpyrrolidin-3-yl)methyl)-7-(1H-pyrazol-1-yl)-1H-imidazo[4,5-c]quinolin-4-amine] had an EC50 of 1400 nM. `CC(C)C(=O)N1CCC[C@H](c2nc3c(N)nc4cc(-c5cc[nH]n5)ccc4c3[nH]2)C1` [Example 26] displayed a concentration giving a half-maximal response (EC50) of 1200 nM. With `CC(C)n1c([C@H]2CCCN(C(=O)Cc3ccccc3)C2)nc2c(N)nc3cc(-c4cc[nH]n4)ccc3c21` [Example 57] the figure was 400 nM. Turning to `COCC(=O)N1CCC[C@@H](c2nc3c(N)nc4cc(-c5cc[nH]n5)ccc4c3[nH]2)C1` [Example 64], the EC50 turned out to be 9900 nM. To `CCCC(=O)N1CCC[C@H](c2nc3c(N)nc4cc(-c5cc[nH]n5)ccc4c3n2CC)C1` [Example 42] belongs 220 nM; to `CC(C)C(=O)N1CCC[C@@H](c2nc3c(N)nc4cc(-c5cc[nH]n5)ccc4c3[nH]2)C1` [Example 60], 4600 nM; to `CC(C)C(=O)N1CCC[C@H]1Cc1nc2c(N)nc3cc(-c4cc[nH]n4)ccc3c2[nH]1` [Example 86], 6400 nM. To `CC(C)(C)OC(=O)N1CCC[C@@H]1Cc1nc2c(N)nc3cc(-c4cc[nH]n4)ccc3c2[nH]1` [Example 13, tert-Butyl (R)-2-((4-amino-7-(1H-pyrazol-3-yl)-1H-imidazo[4,5-c]quinolin-2-yl)methyl)pyrolidine-1-carboxylate] belongs 1520 nM; to `COCCC(=O)N1CCC[C@H](c2nc3c(N)nc4cc(-c5cc[nH]n5)ccc4c3[nH]2)C1` [Example 35], 1800 nM; to `CCCC(=O)N1CCC[C@@H](c2nc3c(N)nc4cc(-c5cc[nH]n5)ccc4c3[nH]2)C1` [Example 62], 1200 nM. To `Nc1nc2cc(-c3cc[nH]n3)ccc2c2[nH]c([C@@H]3CCCN(C(=O)C4CCC4)C3)nc12` [Example 8, (R)-(3-(4-Amino-7-(1H-pyrazol-3-yl)-1H-imidazo[4,5-c]quinolin-2-yl)piperidin-1-yl)(cyclobutyl)methanone] belongs 1900 nM; to `Nc1nc2cc(-c3cc[nH]n3)ccc2c2[nH]c(C[C@H]3CCCN3C(=O)c3ccccn3)nc12` [Example 85], 5900 nM; to `CC(C)C(=O)N1CC[C@@H](c2nc3c(N)nc4cc(-c5cc[nH]n5)ccc4c3[nH]2)C1` [Example 11, (R)-1-(3-(4-Amino-7-(1H-pyrazol-3-yl)-1H-imidazo[4,5-c]quinolin-2-yl)pyrrolidin-1-yl)-2-methylpropan-1-one], 7000 nM. In turn, `CC(C)CC(=O)N1CCC[C@H](c2nc3c(N)nc4cc(-c5cc[nH]n5)ccc4c3n2C(C)C)C1` [Example 53] came in with a concentration for a half-maximal effect (EC50) of 230 nM.

“tert-Butyl 3-((4-amino-7-(1H-pyrazol-1-yl)-1H-imidazo[4,5-c]quinolin-2-yl)methyl)pyrrolidine-1-carboxylate [Example 23]” gave an EC50 of 2200 nM. With `Nc1nc2cc(-c3cc[nH]n3)ccc2c2[nH]c([C@H]3CCN(C(=O)c4ccccc4)C3)nc12` [Example 76] the figure was 5500 nM. To `CC(C)(C)C(=O)N1CCC[C@H]1Cc1nc2c(N)nc3cc(-c4cc[nH]n4)ccc3c2[nH]1` [Example 88] belongs 1900 nM; to `CCn1c([C@H]2CCCN(C(=O)Cc3ccccc3)C2)nc2c(N)nc3cc(-c4cc[nH]n4)ccc3c21` [Example 50], 220 nM. To `CCC(=O)N1CCC[C@H](c2nc3c(N)nc4cc(-c5cc[nH]n5)ccc4c3[nH]2)C1` [Example 25] belongs 1100 nM; to `CC(C)n1c([C@H]2CCCN(C(=O)C3(C#N)CC3)C2)nc2c(N)nc3cc(-c4cc[nH]n4)ccc3c21` [Example 55], 230 nM; to `CC(C)(C)OC(=O)N1CCC[C@H]1Cc1nc2c(N)nc3cc(-c4cc[nH]n4)ccc3c2[nH]1` [Example 16, tert-Butyl (S)-2-((4-amino-7-(1H-pyrazol-3-yl)-1H-imidazo[4,5-c]quinolin-2-yl)methyl)pyyrolidine-1-carboxylate], 3700 nM. Take `CC(=O)N1CCC[C@H](c2nc3c(N)nc4cc(-c5cc[nH]n5)ccc4c3n2C(C)C)C1` [Example 51]: the concentration for a half-maximal effect (EC50) stood at 930 nM.

`Nc1nc2cc(-c3cc[nH]n3)ccc2c2[nH]c([C@H]3CCCN(C(=O)C4CC4(F)F)C3)nc12` (some centres unmarked) [Example 33]: a half-maximal effect (EC50) was put at 1000 nM. Compound `N#CC1(C(=O)N2CC[C@H](c3nc4c(N)nc5cc(-c6cc[nH]n6)ccc5c4[nH]3)C2)CC1` [Example 75] gave an EC50 of 5000 nM.

`COCC(=O)N1CCC[C@H](c2nc3c(N)nc4cc(-c5cc[nH]n5)ccc4c3[nH]2)C1` [Example 34] returned an EC50 of 2200 nM. To `Nc1nc2cc(-c3cc[nH]n3)ccc2c2[nH]c([C@@H]3CCCN(C(=O)C4CC4(F)F)C3)nc12` (some centres unmarked) [Example 63] belongs 6600 nM; to `Nc1nc2cc(-c3cc[nH]n3)ccc2c2[nH]c(C[C@@H]3CCCN3C(=O)C3(C(F)(F)F)CC3)nc12` [Example 93], 3200 nM. As for `CCn1c([C@H]2CCCN(C(=O)C3(C#N)CC3)C2)nc2c(N)nc3cc(-c4cc[nH]n4)ccc3c21` [Example 45], a half-maximal effect (EC50) was put at 110 nM. To `Nc1nc2cc(-c3cc[nH]n3)ccc2c2[nH]c([C@H]3CCCN(C(=O)C4CC4)C3)nc12` [Example 29] belongs 2400 nM; to `Nc1nc2cc(-c3cc[nH]n3)ccc2c2[nH]c([C@@H]3CCCNC3)nc12` [Example 7, (R)-2-(Piperidin-3-yl)-7-(1H-pyrazol-3-yl)-1H-imidazo[4,5-c]quinolin-4-amine], 1730 nM; to `CC(C)(C)C(=O)N1CCC[C@@H](c2nc3c(N)nc4cc(-c5cc[nH]n5)ccc4c3[nH]2)C1` [Example 61], 2300 nM. To `N#CC1(C(=O)N2CCC[C@H](c3nc4c(N)nc5cc(-c6cc[nH]n6)ccc5c4[nH]3)C2)CCC1` [Example 37] belongs 4700 nM.

Compound `CCC(=O)N1CCC[C@H](c2nc3c(N)nc4cc(-c5cc[nH]n5)ccc4c3n2CC)C1` [Example 4, (S)-1-(3-(4-Amino-1-ethyl-7-(1H-pyrazol-3-yl)-1H-imidazo[4,5-c]quinolin-2-yl)piperidin-1-yl)propan-1-one] registered an EC50 of 260 nM.
